# Patent US10472341B2, “Bicyclic tetrahydrothiazepine derivatives useful for the treatment of neoplastic and/or infectious diseases” (APEIRON BIOLOGICS AG, priority 2015, dated 2019)
# Experiments:
# non-stimulated PBMCs = test: Non-stimulated PBMCs: cytokine secretion and signs of T-cell activation; type: cell-based, human
# Text: This is an important finding for compounds that shall selectively act on T cells which have been activated by presence of antigen from pathogens or tumors, but shall not lead to an unwanted general activation of all T cells of a patient.
# [1] = system: aCD3/aCD28-stimulated human CD4+-T-cells; test: IL-2 production and activation markers in aCD3/aCD28 stimulated isolated human CD4+-T-cells; type: cell-based; conditions: IL-2 production at 3 μM compound
# Summary of the method: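 CD4+ T cells isolated from buffy-coat PBMCs by microbeads were plated in Xvivo medium (1.5*10^5 cells/well) and stimulated with anti-CD3/28 mAbs plus compound. IL-2 measured by ELISA in supernatants at 24 h or 48 h; CD25 and proliferation by flow cytometry, CD69 at 24 h. Activity classes based on IL-2 at 3 μM compound.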
# [2] = system: CD8 T cells & M21 tumor cells; test: CD8 T cells from M21-prestimulated PBMCs restimulated with M21 tumor cells, with or without PD-1 blockade; type: cell-based, human
# Experimental: For experiments investigating effects of PD-1 blockade, PBMCs were preincubated with 1 h UV-irradiated M21 tumor cells (50000 tumor cells per 1 Mill. PBMCs) for 14 days. […] Compounds and anti-PD-1 antibody (Nivolumab) or control antibody without direct effects on CD8 T cells (Ipilimumab) were added where indicated.
# […] Example 107, no antibody (no Ig), anti-PD-1 antibody (Nivolumab) or control antibody without direct effects on CD8 T cells (Ipilimumab) were included where indicated.
# [3] = Ex. 107 0.03 μM, with Ipilimumab
# [4] = Ex. 107 0.03 μM, with Nivolumab
# [5] = Ex. 107 0.1 μM, with Ipilimumab
# [6] = Ex. 107 0.3 μM, with Ipilimumab
compound,measurement,setting,value
"Cl.N[C@H]1CS(=O)(=O)c2cc(F)c(C(=O)N[C@H]3CC3(F)F)cc2N(Cc2ccc(Cl)cc2)C1=O (single isomer, unassigned) [Example 107]",cytokine secretion or other signs of T-cell activation,non-stimulated PBMCs,did not enhance cytokine secretion or other signs of T-cell activation
same,Activity Class CD4+,[1],A (IL-2 production at 3 μM compound concentration >10 ng/mL)
same,enhancement of cytokine production,[2]; CD8 T cells in the absence of tumor cells,such effect was not detected in the absence of tumor cells
same,production of IL-2 and IFN-gamma,[2]; CD8 T cells restimulated with M21 tumor cells,enhanced production of both cytokines specifically upon tumor cell contact
same,Average Granzyme B,"[2]; Ex. 107 0.03 μM, no Ig",1.971 ng/mL
same,Average IFN-g,"[2]; Ex. 107 0.03 μM, no Ig",0.059 ng/mL
same,Average IL-2,"[2]; Ex. 107 0.03 μM, no Ig",0.048 ng/mL
same,Average Number of living M21 tumor cells,"[2]; Ex. 107 0.03 μM, no Ig",16433
same,Average Granzyme B,[2]; [3],1.639 ng/mL
same,Average IFN-g,[2]; [3],0.057 ng/mL
same,Average IL-2,[2]; [3],0.041 ng/mL
same,Average Number of living M21 tumor cells,[2]; [3],21424
same,Average Granzyme B,[2]; [4],5.522 ng/mL
same,Average IFN-g,[2]; [4],0.772 ng/mL
same,Average IL-2,[2]; [4],0.105 ng/mL
same,Average Number of living M21 tumor cells,[2]; [4],5574
same,Average Granzyme B,"[2]; Ex. 107 0.1 μM, no Ig",3.645 ng/mL
same,Average IFN-g,"[2]; Ex. 107 0.1 μM, no Ig",0.313 ng/mL
same,Average IL-2,"[2]; Ex. 107 0.1 μM, no Ig",0.106 ng/mL
same,Average Number of living M21 tumor cells,"[2]; Ex. 107 0.1 μM, no Ig",9029
same,Average Granzyme B,[2]; [5],3.905 ng/mL
same,Average IFN-g,[2]; [5],0.363 ng/mL
same,Average IL-2,[2]; [5],0.100 ng/mL
same,Average Number of living M21 tumor cells,[2]; [5],10688
same,Average Granzyme B,"[2]; Ex. 107 0.1 μM, with Nivolumab",9.246 ng/mL
same,Average IFN-g,"[2]; Ex. 107 0.1 μM, with Nivolumab",2.282 ng/mL
same,Average IL-2,"[2]; Ex. 107 0.1 μM, with Nivolumab",0.258 ng/mL
same,Average Number of living M21 tumor cells,"[2]; Ex. 107 0.1 μM, with Nivolumab",3361
same,Average Granzyme B,"[2]; Ex. 107 0.3 μM, no Ig",5.469 ng/mL
same,Average IFN-g,"[2]; Ex. 107 0.3 μM, no Ig",1.114 ng/mL
same,Average IL-2,"[2]; Ex. 107 0.3 μM, no Ig",0.259 ng/mL
same,Average Number of living M21 tumor cells,"[2]; Ex. 107 0.3 μM, no Ig",3822
same,Average Granzyme B,[2]; [6],6.001 ng/mL
same,Average IFN-g,[2]; [6],1.098 ng/mL
same,Average IL-2,[2]; [6],0.222 ng/mL
same,Average Number of living M21 tumor cells,[2]; [6],4339
same,Average Granzyme B,"[2]; Ex. 107 0.3 μM, with Nivolumab",12.040 ng/mL
same,Average IFN-g,"[2]; Ex. 107 0.3 μM, with Nivolumab",4.565 ng/mL
same,Average IL-2,"[2]; Ex. 107 0.3 μM, with Nivolumab",0.590 ng/mL
same,Average Number of living M21 tumor cells,"[2]; Ex. 107 0.3 μM, with Nivolumab",1648
same,Average Granzyme B,"[2]; Ex. 107 1 μM, no Ig",7.246 ng/mL
same,Average IFN-g,"[2]; Ex. 107 1 μM, no Ig",1.963 ng/mL
same,Average IL-2,"[2]; Ex. 107 1 μM, no Ig",0.389 ng/mL
same,Average Number of living M21 tumor cells,"[2]; Ex. 107 1 μM, no Ig",2642
same,Average Granzyme B,"[2]; Ex. 107 1 μM, with Ipilimumab",7.906 ng/mL
same,Average IFN-g,"[2]; Ex. 107 1 μM, with Ipilimumab",2.350 ng/mL
same,Average IL-2,"[2]; Ex. 107 1 μM, with Ipilimumab",0.478 ng/mL
same,Average Number of living M21 tumor cells,"[2]; Ex. 107 1 μM, with Ipilimumab",2104
same,Average Granzyme B,"[2]; Ex. 107 1 μM, with Nivolumab",12.985 ng/mL
same,Average IFN-g,"[2]; Ex. 107 1 μM, with Nivolumab",5.846 ng/mL
same,Average IL-2,"[2]; Ex. 107 1 μM, with Nivolumab",0.954 ng/mL
same,Average Number of living M21 tumor cells,"[2]; Ex. 107 1 μM, with Nivolumab",1574
same,Average Granzyme B,"[2]; Ex. 107 3 μM, no Ig",8.208 ng/mL
same,Average IFN-g,"[2]; Ex. 107 3 μM, no Ig",2.469 ng/mL
same,Average IL-2,"[2]; Ex. 107 3 μM, no Ig",0.523 ng/mL
same,Average Number of living M21 tumor cells,"[2]; Ex. 107 3 μM, no Ig",2075
same,Average Granzyme B,"[2]; Ex. 107 3 μM, with Ipilimumab",9.283 ng/mL
same,Average IFN-g,"[2]; Ex. 107 3 μM, with Ipilimumab",2.745 ng/mL
same,Average IL-2,"[2]; Ex. 107 3 μM, with Ipilimumab",0.555 ng/mL
same,Average Number of living M21 tumor cells,"[2]; Ex. 107 3 μM, with Ipilimumab",2083
same,Average Granzyme B,"[2]; Ex. 107 3 μM, with Nivolumab",14.403 ng/mL
same,Average IFN-g,"[2]; Ex. 107 3 μM, with Nivolumab",6.041 ng/mL
same,Average IL-2,"[2]; Ex. 107 3 μM, with Nivolumab",1.285 ng/mL
same,Average Number of living M21 tumor cells,"[2]; Ex. 107 3 μM, with Nivolumab",1429
same,Average Granzyme B,"[2]; Ex. 107 10 μM, no Ig",8.378 ng/mL
same,Average IFN-g,"[2]; Ex. 107 10 μM, no Ig",3.113 ng/mL
same,Average IL-2,"[2]; Ex. 107 10 μM, no Ig",0.643 ng/mL
same,Average Number of living M21 tumor cells,"[2]; Ex. 107 10 μM, no Ig",2000
same,Average Granzyme B,"[2]; Ex. 107 10 μM, with Ipilimumab",8.227 ng/mL
same,Average IFN-g,"[2]; Ex. 107 10 μM, with Ipilimumab",3.171 ng/mL
same,Average IL-2,"[2]; Ex. 107 10 μM, with Ipilimumab",0.669 ng/mL
same,Average Number of living M21 tumor cells,"[2]; Ex. 107 10 μM, with Ipilimumab",2033
same,Average Granzyme B,"[2]; Ex. 107 10 μM, with Nivolumab",13.079 ng/mL
same,Average IFN-g,"[2]; Ex. 107 10 μM, with Nivolumab",6.729 ng/mL
same,Average IL-2,"[2]; Ex. 107 10 μM, with Nivolumab",1.596 ng/mL
same,Average Number of living M21 tumor cells,"[2]; Ex. 107 10 μM, with Nivolumab",1799
same,reduction of viable tumor cells,[2]; example 107 in the presence of Nivolumab,even more pronounced and reached with lower compound concentrations in the presence of Nivolumab
same,enhancement of cytokine production,"[2]; example 107 together with anti-PD-1 antibody (Nivolumab), CD8 T cells & M21","the enhancement of cytokine production was synergistic, i.e. more than additive"
same,granzyme release upon tumor-cell contact,"[2]; example 107 with PD-1 blockade, CD8 T cells & M21",mediated an synergistic enhancement of the cytotoxic effector granzyme release upon tumor-cell contact
same,viable tumor cells,[2]; immune cell cocultures with M21 tumor cells,strong reduction of viable tumor cells
